According to publication PMC2848298 (Bioorganic & medicinal chemistry letters, 2010):
Where two headings read alike, the source gives them in different places.

What was measured:
ABCG2 [1] = target: T1, ABCG2 (Homo sapiens, UniProt Q9UNQ0)
T1 sequence (Q9UNQ0 1-655): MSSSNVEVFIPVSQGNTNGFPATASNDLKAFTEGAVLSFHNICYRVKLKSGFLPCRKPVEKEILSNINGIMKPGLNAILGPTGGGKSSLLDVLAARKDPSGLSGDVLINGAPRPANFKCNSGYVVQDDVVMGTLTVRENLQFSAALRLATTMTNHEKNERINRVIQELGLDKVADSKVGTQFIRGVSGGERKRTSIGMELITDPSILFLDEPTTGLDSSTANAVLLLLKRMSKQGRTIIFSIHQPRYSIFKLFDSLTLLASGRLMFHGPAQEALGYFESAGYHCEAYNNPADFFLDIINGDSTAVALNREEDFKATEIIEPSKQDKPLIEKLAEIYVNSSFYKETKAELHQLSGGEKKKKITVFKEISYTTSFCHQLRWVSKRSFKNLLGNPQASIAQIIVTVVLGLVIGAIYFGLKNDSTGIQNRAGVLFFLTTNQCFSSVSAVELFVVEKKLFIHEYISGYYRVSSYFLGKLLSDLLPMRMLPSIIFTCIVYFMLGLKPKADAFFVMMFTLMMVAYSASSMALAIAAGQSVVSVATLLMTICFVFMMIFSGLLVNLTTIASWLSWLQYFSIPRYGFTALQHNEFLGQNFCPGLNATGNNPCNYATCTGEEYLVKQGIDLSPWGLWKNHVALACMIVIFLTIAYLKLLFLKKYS

P-glycoprotein (P-gp) = settings: cited from earlier work
ABCG2 [2] = target: T1, ABCG2; assay: Cellular accumulation of the ABCG2 substrate pheophorbide-a; settings: PhA accumulation assay

Compound: 2-methoxy-p-coumaric acid [compound 8]
- ABCG2 inhibitory activity (in words) (ABCG2 [1]): inactive

Compound: CO/C(=C\c1ccc(O)cc1)C(=O)N/C=C/c1cc(Br)c(OC)c(Br)c1 [botryllamide A, reference compound]
- Inhibition of export of rhodamine by P-gp (P-glycoprotein (P-gp)): inhibited the export of rhodamine

Compound: CO/C(=C\c1ccc(O)cc1)C(=O)N/C=C/c1cc(Br)c(O)c(Br)c1 [botryllamide G]
- Inhibition of efflux of rhodamine out of P-gp-overexpressing cells (P-glycoprotein (P-gp); at 50 μM): not the efflux of rhodamine

Compound: CO/C(=C\c1ccc(O)cc1)C(=O)NCC(O)c1ccc(O)cc1 (centres unmarked) [compound 9]
- ABCG2 inhibitory activity (in words) (ABCG2 [2]): inactive

Compound: O=C(/C=C/c1ccc(O)cc1)N/C=C/c1ccc(O)cc1 [compound 18]
- ABCG2 inhibitory activity (in words) (ABCG2 [2]; at 100 μM): inactive

Compound: CO/C(=C\c1ccc(O)c(O)c1)C(=O)N/C=C/c1ccc(O)cc1 [compound 21]
- ABCG2 inhibitory activity (in words) (ABCG2 [2]): retained inhibitory activity

Compound: CO/C(=C\c1cc(Br)c(O)c(Br)c1)C(=O)N/C=C/c1ccc(O)cc1 [compound 22]
- ABCG2 inhibitory activity (in words) (ABCG2 [2]): observed inhibitory activity

Compound: CO/C(=C\c1cc(Br)c(O)c(Br)c1)C(=O)N/C=C/c1ccc(OC(C)=O)cc1 [compound 23]
- ABCG2 inhibitory activity (in words) (ABCG2 [2]): observed inhibitory activity
